Source: patent publication US10220010B2 (AuXin Surgery SA, priority 2014, dated 2019)
Where “and” joins values, the source holds several entries; their conditions need not be identical. Equal entries are not always repeated.

Assay: impurities levels (Mesna disulphide percentage) of lyophilizate Mesna compositions
Type: physicochemical
Conditions: content in composition
Protocol: Measurements of Mesna disulfide percentage were conducted for different Mesna lyophilizates made according to the present invention. The compositions of the tested Mesna lyophilizates comprised 125 mg or 250 mg of Mesna in 2 ml Water for Injection. Other tested Mesna lyophilizates compositions further comprised trehalose or Mannitol. […] Any slightly higher increase was of maximum 0.5% compared to the Mesna disulfide percentage measured for the pharmaceutical grade Mesna (Table 2). […] In addition, the sum of Mesna disulphide percentage and other impurities percentage was also always lower than said maximum of 3%.

## O=S(=O)([O-])CCS.[Na+] [Mesna P, Sodium 2-mercaptoethanesulfonate]
  MESNA: 98.82% and 98.80% and 98.96%
  Other impurities: 0.15% and 0.20% and 0.19%
Stability marker
  Mesna disulphide: 1.03% and 1.00% and 0.85%
